EPA's ToxValDB 9.5 (doi:10.2903/j.efsa.2008.148r)
≈ marks a conversion by molar mass, not a printed value.

Experiments:
Apis mellifera = conditions: acute; duration: 48 hours; oral; unspecified; mortality
Avena sativa = conditions: acute; duration: 14 days; growth
Canidae = conditions: subchronic; duration: 90 days; oral; Dog Other; clinical signs
Coturnix japonica = conditions: acute; oral; mortality
Daphnia magna = conditions: chronic/long-term; duration: 21 days; reproduction
Folsomia candida = conditions: chronic/long-term; duration: 28 days; reproduction
Lepidium sativum = conditions: acute; duration: 14 days; growth
Macromiidae = conditions: acute; duration: 72 hours; biomass
Mus musculus = conditions: acute; oral; mortality
Oryctolagus sp. = conditions: reproduction developmental; body weight
Poecilus cupreus = assay: LR50; higher = less toxic; conditions: not reported; mortality

Structure (SMILES): O=[N+]([O-])/N=C1\NCCN1Cc1ccc(Cl)nc1 [Imidacloprid]
- LD50 (Apis mellifera): 0.0037 µg/piece
- NOEC (Avena sativa): ≥ 100 mg/kg
- NOAEL (Canidae): 7.8 mg/kg-day
- NOAEL (Colinus virginianus; reproduction developmental): 9.3 mg/kg-day
- NOEL (Colinus virginianus; short-term, oral, diet): 29.4 mg/kg-day
- LD50 (Coturnix japonica): 31 mg/kg-day
- NOEC (Daphnia magna): 1.8 mg/L
- NOEC (Folsomia candida): 1.25 mg/kg
- NOEC (Lepidium sativum): 10 mg/kg
- NOEC (Macromiidae): 10 mg/L
- LD50 (Mus musculus): 131 mg/kg-day
- LC50 (Oncorhynchus mykiss; acute, duration: 96 hours, mortality): 211 µg/mL (≈ 825 µM)
- NOEC (Oncorhynchus mykiss; chronic/long-term, duration: 91 days, time to swim up): 9.02 mg/L
- NOAEL (Oryctolagus sp.): 8 mg/kg-day
- NOAEL (Rattus norvegicus; chronic): 17 mg/kg-day
- NOAEL (Rattus norvegicus; chronic, duration: 2 years, histopathology: nonneoplastic): 5.7 mg/kg-day
- NOAEL (Rattus norvegicus; subchronic, duration: 90 days, oral, histopathology: nonneoplastic): 9.3 mg/kg-day
- LC50 (Tagia sp.; acute, duration: 14 days, mortality): 10.7 mg/kg
- NOEC (Tagia sp.; chronic/long-term, duration: 56 days, reproduction): > 0.178 mg/kg
- LR50 (Poecilus cupreus): 0.136 mg/kg
